Source: patent publication US7964531B2, “3-phenoxy-4-pyridazinol derivatives and herbicidal composition containing the same” (Mitsui Chemicals Agro, Inc., priority 2001, dated 2011)

SMILES | melting point [°C]
C=CCc1ccccc1Oc1nnc(Cl)cc1O [Compound No. 307, 3-(2-Allylphenoxy)-6-chloro-4-pyridazinol] | 200 to 202.5
C#Cc1ccccc1Oc1nnc(Cl)cc1O [Compound No. 308, 6-Chloro-3-(2-ethynylphenoxy)-4-pyridazinol] | 189 to 191
CC#Cc1ccccc1Oc1nnc(Cl)cc1O [Compound No. 309, 6-Chloro-3-[2-(1-propynyl)phenoxy]-4-pyridazinol] | 182 to 184
Oc1cc(Cl)nnc1Oc1ccccc1CC1CC1 [Compound No. 311, 6-Chloro-3-[2-(cyclopropylmethyl)phenoxy]-4-pyridazinol] | 165 to 168
Oc1cc(Cl)nnc1Oc1ccccc1Cc1ccccc1 [Compound No. 315, 3-(2-Benzylphenoxy)-6-chloro-4-pyridazinol] | 185 to 187
COCc1ccccc1Oc1nnc(Cl)cc1O [Compound No. 324, 6-Chloro-3-[2-(methoxymethyl)phenoxy]-4-pyridazinol] | 211 to 212
CCOCc1ccccc1Oc1nnc(Cl)cc1O [Compound No. 325, 6-Chloro-3-[2-(ethoxymethyl)phenoxy]-4-pyridazinol] | 173 to 174
Oc1cc(Cl)nnc1Oc1ccccc1C1OCCO1 [Compound No. 329, 6-Chloro-3-[2-(1,3-dioxolan-2-yl)phenoxy]-4-pyridazinol] | 143 to 145
CON=C(C)c1ccccc1Oc1nnc(Cl)cc1O [Compound No. 334, 1-{2-[(6-Chloro-4-hydroxy-3-pyridazinyl)oxy]phenyl}ethanone O-methyloxime] | 165 to 167
COC(=O)c1ccccc1Oc1nnc(Cl)cc1O [Compound No. 339, Methyl 2-[(6-chloro-4-hydroxy-3-pyridazinyl)oxy]benzoate] | 188 to 191
Oc1cc(Cl)nnc1Oc1ccccc1-c1ccccc1 [Compound No. 344, 3-([1,1′-Biphenyl]-2-yloxy)-6-chloro-4-pyridazinol] | 98 to 100
Oc1cc(Cl)nnc1Oc1ccccc1-c1ccsc1 [Compound No. 361, 6-Chloro-3-[2-(3-thienyl)phenoxy]-4-pyridazinol] | 207 to 209
CN(C)S(=O)(=O)n1ccc(-c2ccccc2Oc2nnc(Cl)cc2O)n1 [Compound No. 368, 3-{2-[(6-Chloro-4-hydroxy-3-pyridazinyl)oxy]phenyl}N,N-dimethyl-1H-pyrazole-1-sulfonamide] | 210 to 212
CN(C)S(=O)(=O)n1nccc1-c1ccccc1Oc1nnc(Cl)cc1O [Compound No. 369, 5-{2-[(6-Chloro-4-hydroxy-3-pyridazinyl)oxy]phenyl}N,N-dimethyl-1H-pyrazole-1-sulfonamide] | 151 to 152
Oc1cc(Cl)nnc1Oc1ccccc1-c1nc2ccccc2o1 [Compound No. 375, 3-[2-(1,3-Benzoxazol-2-yl)phenoxy]-6-chloro-4-pyridazinol] | 165 to 167
Oc1cc(Cl)nnc1Oc1ccccc1-c1nc2ccccc2s1 [Compound No. 376, 3-[2-(1,3-Benzothiazol-2-yl)phenoxy]-6-chloro-4-pyridazinol] | 215 to 217
Nc1ccccc1OC1(Cl)NN=CC=C1O (stereo not drawn) [Compound No. 377, 3-(2-Aminophenoxy)-3-chloro-4-pyridazinol] | 249 to 250
O=[N+]([O-])c1ccccc1Oc1nnc(Cl)cc1O [Compound No. 383, 6-Chloro-3-(2-nitrophenoxy)-4-pyridazinol] | 99 to 100
Oc1ccccc1Oc1nnc(Cl)cc1O [Compound No. 384, 6-Chloro-3-(2-hydroxyphenoxy)-4-pyridazinol] | 216 to 219
COc1ccccc1Oc1nnc(Cl)cc1O [Compound No. 385, 6-Chloro-3-(2-methoxyphenoxy)-4-pyridazinol] | 191 to 194
CCOc1ccccc1Oc1nnc(Cl)cc1O [Compound No. 386, 6-Chloro-3-(2-ethoxyphenoxy)-4-pyridazinol] | 155 to 175
CC(C)Oc1ccccc1Oc1nnc(Cl)cc1O [Compound No. 387, 6-Chloro-3-(2-isopropoxyphenoxy)-4-pyridazinol] | 178 to 179
Oc1cc(Cl)nnc1Oc1ccccc1OC(F)F [Compound No. 390, 6-Chloro-3-[2-(difluoromethoxy)phenoxy]-4-pyridazinol] | 210 to 212
CSc1ccccc1Oc1nnc(Cl)cc1O [Compound No. 401, 6-Chloro-3-[2-(methylsulfanyl)phenoxy]-4-pyridazinol] | 174 to 175
CC(C)Sc1ccccc1Oc1nnc(Cl)cc1O [Compound No. 403, 6-Chloro-3-[2-(isopropylsulfanyl)phenoxy]-4-pyridazinol] | 176 to 177
Oc1cc(Cl)nnc1Oc1cccc(I)c1 [Compound No. 412, 6-Chloro-3-(3-iodophenoxy)-4-pyridazinol] | 202 to 203
Cc1cccc(Oc2nnc(Cl)cc2O)c1 [Compound No. 413, 6-Chloro-3-(3-methylphenoxy)-4-pyridazinol] | 205 to 208

SMILES | melting point [°C]
CC(C)c1cccc(Oc2nnc(Cl)cc2O)c1 [Compound No. 415, 6-Chloro-3-(3-isopropylphenoxy)-4-pyridazinol] | 176 to 177
CC(C)(C)c1cccc(Oc2nnc(Cl)cc2O)c1 [Compound No. 416, 3-(3-tert-Butylphenoxy)-6-chloro-4-pyridazinol] | 203 to 207
Oc1cc(Cl)nnc1Oc1cccc(C2CC2)c1 [Compound No. 417, 6-Chloro-3-(3-cyclopropylphenoxy)-4-pyridazinol] | 179 to 181
Oc1cc(Cl)nnc1Oc1cccc(C(F)(F)F)c1 [Compound No. 418, 6-Chloro-3-[3-(trifluoromethyl)phenoxy]-4-pyridazinol] | 213 to 216
Oc1cc(Cl)nnc1Oc1cccc(-c2ccco2)c1 [Compound No. 419, 6-Chloro-3-[3-(2-furyl)phenoxy]-4-pyridazinol] | 200 to 202
N#Cc1cccc(Oc2nnc(Cl)cc2O)c1 [Compound No. 420, 3-[(6-Chloro-4-hydroxy-3-pyridazinyl)oxy]benzonitrile] | 226 to 229
O=Cc1cccc(Oc2nnc(Cl)cc2O)c1 [Compound No. 421, 3-[(6-Chloro-4-hydroxy-3-pyridazinyl)oxy]benzaldehyde] | 188 to 192
CC(=O)c1cccc(Oc2nnc(Cl)cc2O)c1 [Compound No. 422, 1-{3-[(6-Chloro-4-hydroxy-3-pyridazinyl)oxy]phenyl}ethanone] | 195 to 198
O=[N+]([O-])c1cccc(Oc2nnc(Cl)cc2O)c1 [Compound No. 424, 6-Chloro-3-(3-nitrophenoxy)-4-pyridazinol] | 217 to 219
COc1cccc(Oc2nnc(Cl)cc2O)c1 [Compound No. 425, 6-Chloro-3-(3-methoxyphenoxy)-4-pyridazinol] | 199 to 203
Oc1cc(Cl)nnc1Oc1ccc(F)cc1 [Compound No. 426, 6-Chloro-3-(4-fluorophenoxy)-4-pyridazinol] | 241 to 248
Oc1cc(Cl)nnc1Oc1ccc(Cl)cc1 [Compound No. 427, 6-Chloro-3-(4-chlorophenoxy)-4-pyridazinol] | 226 to 231
Cc1ccc(Oc2nnc(Cl)cc2O)cc1 [Compound No. 430, 6-Chloro-3-(4-methylphenoxy)-4-pyridazinol] | 261 to 263
CC(C)c1ccc(Oc2nnc(Cl)cc2O)cc1 [Compound No. 432, 6-Chloro-3-(4-isopropylphenoxy)-4-pyridazinol] | 233 to 235
CC(C)(C)c1ccc(Oc2nnc(Cl)cc2O)cc1 [Compound No. 433, 3-(4-tert-Butylphenoxy)-6-chloro-4-pyridazinol] | 224 to 225
Oc1cc(Cl)nnc1Oc1ccc(C2CC2)cc1 [Compound No. 434, 6-Chloro-3-(4-cyclopropylphenoxy)-4-pyridazinol] | 221 to 227
COc1ccc(Oc2nnc(Cl)cc2O)cc1 [Compound No. 435, 6-Chloro-3-(4-methoxyphenoxy)-4-pyridazinol] | 260 to 263.5
Oc1cc(Cl)nnc1Oc1cccc(F)c1F [Compound No. 437, 6-Chloro-3-(2,3-difluorophenoxy)-4-pyridazinol] | 188 to 193
Oc1cc(Cl)nnc1Oc1cccc(Cl)c1F [Compound No. 438, 6-Chloro-3-(3-chloro-2-fluorophenoxy)-4-pyridazinol] | 187 to 195
Oc1cc(Cl)nnc1Oc1cccc(C(F)(F)F)c1F [Compound No. 441, 6-Chloro-3-[2-fluoro-3-(trifluoromethyl)phenoxy]-4-pyridazinol] | 185 to 189
Oc1cc(Cl)nnc1Oc1cccc(Cl)c1Cl [Compound No. 443, 6-Chloro-3-(2,3-dichlorophenoxy)-4-pyridazinol] | 233 to 238
Oc1cc(Cl)nnc1Oc1cccc(C(F)(F)F)c1Cl [Compound No. 446, 6-Chloro-3-[2-chloro-3-(trifluoromethyl)phenoxy]-4-pyridazinol] | 170 to 200
Cc1cccc(Oc2nnc(Cl)cc2O)c1Br [Compound No. 450, 3-(2-Bromo-3-methylphenoxy)-6-chloro-4-pyridazinol] | 140 to 141
Cc1c(F)cccc1Oc1nnc(Cl)cc1O [Compound No. 453, 6-Chloro-3-(3-fluoro-2-methylphenoxy)-4-pyridazinol] | 242 to 244
Cc1c(Cl)cccc1Oc1nnc(Cl)cc1O [Compound No. 454, 6-Chloro-3-(3-chloro-2-methylphenoxy)-4-pyridazinol] | 250 to 252
Cc1cccc(Oc2nnc(Cl)cc2O)c1C [Compound No. 456, 6-Chloro-3-(2,3-dimethylphenoxy)-4-pyridazinol] | 240 to 241
Cc1c(Oc2nnc(Cl)cc2O)cccc1[N+](=O)[O-] [Compound No. 458, 6-Chloro-3-(2-methyl-3-nitrophenoxy)-4-pyridazinol] | 241 to 244
